From the supplement of paper PMC11061612 come the findings set out here.

Holding throughout (test): combination Emax (second highest fraction inhibited in the dose matrix, 72 h); higher = more inhibition; extreme values may be limits of the assay
Experiment [1] deals with KU812 (Chronic Myelogenous Leukemia). The method in brief:
(§1)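 After 24 hours at 37°C and 5% CO2 in 1536-well plates, cells in DMEM/F12 or RPMI plus 10% FBS received two-drug dose matrices for 72 hours. Viability came from CellTiter-Glo 2.0 luminescence and was scaled as inhibition, anchored at 0 by vehicle wells and at 1 by blank wells. Combination Emax is taken as the second-highest inhibition in the matrix, and Bliss excess as the observed combination effect less EA + EB − EA·EB, with EA and EB the single-agent effects.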

Experiment [2] relates to NCI-H520 (Squamous Cell Lung Carcinoma). The method in brief: as §1
Experiment [3] has as its system HCC1419 (Breast Carcinoma). The method in brief: as §1
Experiment [4] relates to JHH-4 (Hepatocellular Carcinoma). Summed up: as §1
Experiment [5] has as its system CW-2 (Colorectal Carcinoma). The method in brief: as §1
For experiment [6], the system named is 8505C (Thyroid Gland Carcinoma). The method in brief: as §1
The subject of experiment [7] is SK-GT-4 (Esophageal Adenocarcinoma). The method in brief: as §1
Experiment [8] deals with NCI-H929 (Plasma Cell Myeloma). The method in brief:
as §1

The subject of experiment [9] is MOG-G-CCM (Low Grade Glioma). Summed up: as §1
The subject of experiment [10] is NCCIT (Other Solid Carcinomas). The method in brief: as §1
The test system of experiment [11] is KMS-12-BM (Plasma Cell Myeloma). The method in brief:
as §1

The test system of the next experiment is RD (Rhabdomyosarcoma). Summed up:
as §1

The test system of experiment [12] is CHSA8926 (Chondrosarcoma). Summed up:
as §1

Experiment [13] deals with SU-DHL-5 (B-Cell Non-Hodgkin's Lymphoma). The method in brief:
as §1

In experiment [14] the test system is KYSE-270 (Esophageal Squamous Cell Carcinoma). Summed up:
as §1

Experiment [15] relates to T-T (Esophageal Squamous Cell Carcinoma). Summed up:
as §1

Experiment [16] deals with NCI-H3122 (Lung Adenocarcinoma). Summed up:
as §1

The test system of another experiment is SJSA-1 (Osteosarcoma). Summed up: as §1
The test system of another experiment is M059J (Glioblastoma). Summed up:
as §1

A further experiment deals with G-361 (Melanoma). Summed up:
as §1

As to `CC1(C)CCC(CN2CCN(c3ccc(C(=O)NS(=O)(=O)c4ccc(NCC5CCOCC5)c([N+](=O)[O-])c4)c(Oc4cnc5[nH]ccc5c4)c3)CC2)=C(c2ccc(Cl)cc2)C1` [Venetoclax] + C[C@@H](Nc1cc(F)cc(F)c1)c1cc(C(=O)N(C)C)cc2c(=O)cc(N3CCOCC3)oc12 [AZD8186] (first compound max 1 µM, 7x7, partner max 3 µM), the “combination Emax” value was found to be 0.205 in experiment [1]; 0.488 in [2]; 0.181 in [3]; 0.211 in experiment [4]; 0.0925 in [5]; 0.109 in [6]. The “combination Emax” value in experiment [7] was 0.229; in experiment [8], 0.811; in experiment [9] it was 0.398; in [10] it was 0.177; in experiment [11] it was 1; with RD (Rhabdomyosarcoma) it was 0.265. Also, the “combination Emax” value is 0.478 in experiment [12]; 0.984 in experiment [13]; 0.653 in [14]; 0.172 in experiment [15]; 0.134 in experiment [16]; 0.123 with SJSA-1 (Osteosarcoma). Besides, the figures for the “combination Emax” value with M059J (Glioblastoma) and in the experiment with G-361 (Melanoma) were 0.306 and 0.248, respectively.
With `CC1(C)CCC(CN2CCN(c3ccc(C(=O)NS(=O)(=O)c4ccc(NCC5CCOCC5)c([N+](=O)[O-])c4)c(Oc4cnc5[nH]ccc5c4)c3)CC2)=C(c2ccc(Cl)cc2)C1` [Venetoclax] + Cc1cc2ncnn2cc1Nc1ncc2c(n1)n(C1CCOCC1)c(=O)n2C [AZD7648] (first compound max 1 µM, 7x7, partner max 10 µM), the “combination Emax” value in experiment [1] amounted to 0.489; in experiment [2], 0.54; in experiment [3] it was 0.383; in [4], 0.208; in [5], 0.163; in experiment [6], 0.187. In addition, the “combination Emax” value in experiment [7] amounted to 0.374; in experiment [8], 0.812; in experiment [9], 0.303; in [10], 0.289; in experiment [11] it was 1; in the experiment on RD (Rhabdomyosarcoma), 0.183. In addition, the “combination Emax” value is 0.359 in [12]; 0.687 in experiment [13]; 0.675 in experiment [14]; 0.172 in experiment [15]; 0.387 in experiment [16]; 0.291 with SJSA-1 (Osteosarcoma). Besides, the “combination Emax” value in the experiment with M059J (Glioblastoma) came out at 0.279; in the experiment with G-361 (Melanoma), 0.152.
Regarding `CC1(C)CCC(CN2CCN(c3ccc(C(=O)NS(=O)(=O)c4ccc(NCC5CCOCC5)c([N+](=O)[O-])c4)c(Oc4cnc5[nH]ccc5c4)c3)CC2)=C(c2ccc(Cl)cc2)C1` [Venetoclax] + Cn1cnc2c(F)c(Nc3ccc(Br)cc3Cl)c(C(=O)NOCCO)cc21 [Selumetinib] (first compound max 1 µM, 7x7, partner max 3 µM), the “combination Emax” value in [1] came out at 0.783; in experiment [2], 0.113; in experiment [3], 0.201; in experiment [4] it was 0.188; in [5] it was 0.191; in experiment [6], 0.36. The “combination Emax” value in experiment [7] worked out at 0.473; in [8], 0.386; in experiment [9] it was 0.0923; in experiment [10], 0.112; in [11], 1; in the experiment with RD (Rhabdomyosarcoma), 0.217. Further, the “combination Emax” value in [12] came to 0.148; in experiment [13], 0.339; in experiment [14], 0.554; in experiment [15] it was 0.221; in experiment [16], 0.387; with SJSA-1 (Osteosarcoma), 0.325. Moreover, the results for the “combination Emax” value in the experiment with M059J (Glioblastoma) and with G-361 (Melanoma) were 0.203 and 0.702, respectively.
